Measured values as given in paper PMC11945486, “TAS1R2/TAS1R3 Single-Nucleotide Polymorphisms Affect Sweet Taste Receptor Activation by Sweeteners: The SWEET Project” (Nutrients, 2025).

Target: T1, human TAS1R2-I191V (subunit alone) (Homo sapiens, UniProt Q8TE23, I191V)
T1 construct: expressed in transfected cells; host or cells: HEK293T-Gα16gust44
T1 sequence (Q8TE23 20-839 I191V): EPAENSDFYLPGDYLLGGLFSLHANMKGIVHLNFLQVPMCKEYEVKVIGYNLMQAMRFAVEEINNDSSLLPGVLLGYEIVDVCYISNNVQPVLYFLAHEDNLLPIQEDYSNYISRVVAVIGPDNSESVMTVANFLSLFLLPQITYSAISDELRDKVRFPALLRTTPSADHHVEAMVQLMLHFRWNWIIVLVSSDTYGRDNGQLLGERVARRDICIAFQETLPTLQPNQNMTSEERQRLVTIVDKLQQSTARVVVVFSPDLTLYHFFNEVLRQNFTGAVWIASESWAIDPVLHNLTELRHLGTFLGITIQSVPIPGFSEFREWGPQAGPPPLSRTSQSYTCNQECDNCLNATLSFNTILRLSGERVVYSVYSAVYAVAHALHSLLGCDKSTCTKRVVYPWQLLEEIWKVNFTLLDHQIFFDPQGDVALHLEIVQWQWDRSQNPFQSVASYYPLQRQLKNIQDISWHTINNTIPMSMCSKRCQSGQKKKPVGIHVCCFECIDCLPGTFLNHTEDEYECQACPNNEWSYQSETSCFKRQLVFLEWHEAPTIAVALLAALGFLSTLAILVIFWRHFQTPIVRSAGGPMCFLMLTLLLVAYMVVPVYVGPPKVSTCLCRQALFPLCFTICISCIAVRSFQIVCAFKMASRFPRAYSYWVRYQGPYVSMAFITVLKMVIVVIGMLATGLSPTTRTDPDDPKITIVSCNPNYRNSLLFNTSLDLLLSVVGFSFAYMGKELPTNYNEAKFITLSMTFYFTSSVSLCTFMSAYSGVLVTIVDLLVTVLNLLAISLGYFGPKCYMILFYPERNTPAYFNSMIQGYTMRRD
Assay: Calcium mobilisation assay, TAS1R2-I191V subunit alone
Assay type: cell-based
Description: The coding sequences for TAS1R2 and TAS1R3 were commercially synthesised, and the human codon was optimised for expression in human cells. The coding sequences of human TAS1R2 and TAS1R3 were subcloned and inserted into the mammalian expression vectors pcDNA6/myc-HisA and pcDNA4/myc-HisA (Invitrogen; Thermo Fisher Scientific; Illkirch, France) between the EcoRI and NotI restriction sites, generating the plasmids pcDNA6-TAS1R2 and pcDNA4-TAS1R3, respectively. To increase protein expression in mammalian cells, an upstream start codon was used, which was a sequence called MAX, corresponding to the QBI SP163 element also described in pcDNA4-HisMax (Invitrogen; Thermo Fisher Scientific; Illkirch, France). To measure the expression level of the receptor by immunohistochemistry, we used the FLAG sequence ([…]) in the C-terminal position, which encodes the FLAG tag epitope. […]
The HEK293T cells were kindly provided by Jay P. Slack (Givaudan Flavors Corporation; Cincinnati, OH, USA). […] The fluorescence intensity was measured for 90 s (excitation 488 nm, emission 510 nm) in an automated fluorometric FlexStation®3 Multi-Mode microplate reader (Molecular Devices; San Jose, CA, USA). […] The Ca^2+ changes were expressed as fractional changes in fluorescent light intensity: ΔF/F = (F − F0)/F0, where F was the fluorescent light intensity at each point, and F0 was the value of emitted fluorescent light prior to stimulus application. To calculate dose–response relationships, the changes in fluorescence upon stimulus application were averaged, mock-subtracted and baseline-corrected. […] The half-maximal effective concentrations (EC50 values) and maximal signal amplitudes were calculated using SigmaPlot software (version 15.0) (Systat Software; San Jose, CA, USA).
For in vitro calcium mobilisation assay performed on hTAS1R2-SNPs, hTAS1R3-SNPs and mTAS1R3-I60T, 6 to 7 concentrations were tested for each sweet compound, plus buffer alone. All concentration–receptor combinations were measured in duplicate, and each experiment was repeated at least 4 times (8 wells/concentration). […]

C=C(C)[C@@H]1CC=C(/C=N/O)CC1 [Perillartine, perillartine]
EC50: 390 ± 47 µM | R1 = Variant EC50/WT EC50: 4.3 | Max ΔF/F0 (maximal signal amplitude): 0.19 ± 0.01
